A word on the Ki: it is a measure of affinity in units of concentration, obtained from inhibition or displacement. As usually defined, the IC50 is the concentration at which inhibition is half-maximal. The term inhibition in vivo denotes the relative decrease from the control value, in per cent.

The target in data set [1] is T1, Transient receptor potential cation channel subfamily V member 1 (Homo sapiens, UniProt Q8NER1). Nature of the data set: Antagonist activity at human TRPV1 heterologously expressed in CHO cells assessed as inhibition of capsaicin-induced activation by FLIPR assay. The format is cell-based.
The target of data set [2] is T1, Transient receptor potential cation channel subfamily V member 1. Kind of data set: Antagonist activity at human TRPV1 heterologously expressed in CHO cells assessed as inhibition of NADA-induced activation by FLIPR assay. Format: cell-based.
For data set [3] the target is unchanged. Kind of data set: Antagonist activity at human TRPV1 heterologously expressed in CHO cells assessed as inhibition of low pH-induced activation. The format is cell-based.
Data set [4] has the same target. Nature of the data set: Antagonist activity at human TRPV1 heterologously expressed in CHO cells assessed as inhibition of low 45 degC heat -induced activation. Format: cell-based.
Data set [5] has as its system Mus musculus. Kind of data set: Inhibition of capsaicin-induced hypothermia in mouse at 3 mg/kg, po administered 15 mins prior to capsaicin challenge measured 30 mins post capsaicin challenge. The format is functional.
Data set [6] concerns Mus musculus. Kind of data set: Analgesic activity in Bennett mouse model of neuropathic pain assessed as reduction of CCI-induced cold allodynia at 0.0001 to 100 mg/kg, po. Format: functional, organism-based.
Data set [7] deals with Mus musculus. Nature of the data set: Induction of hyperthermia in mouse at 0.3 and 3 mg/kg, po. The conditions noted are these: in vivo.
The subject of data set [8] is Mus musculus. Nature of the data set: Inhibition of capsaicin-induced hypothermia in mouse at 0.3 mg/kg, po administered 15 mins prior to capsaicin challenge measured 30 mins post capsaicin challenge. Format: functional.
Data set [9] relates to Mus musculus. Kind of data set: Analgesic activity in Bennett mouse model of neuropathic pain assessed as reduction of CCI-induced cold allodynia at 10 mg/kg, po. The format is functional.
Data set [10] deals with Mus musculus. Kind of data set: Inhibition of capsaicin-induced hypothermia in mouse at 0.3 and 3 mg/kg, po administered 15 mins prior to capsaicin challenge measured 30 mins post capsaicin challenge. Format: functional, organism-based.

T1 sequence (Q8NER1 whole entry): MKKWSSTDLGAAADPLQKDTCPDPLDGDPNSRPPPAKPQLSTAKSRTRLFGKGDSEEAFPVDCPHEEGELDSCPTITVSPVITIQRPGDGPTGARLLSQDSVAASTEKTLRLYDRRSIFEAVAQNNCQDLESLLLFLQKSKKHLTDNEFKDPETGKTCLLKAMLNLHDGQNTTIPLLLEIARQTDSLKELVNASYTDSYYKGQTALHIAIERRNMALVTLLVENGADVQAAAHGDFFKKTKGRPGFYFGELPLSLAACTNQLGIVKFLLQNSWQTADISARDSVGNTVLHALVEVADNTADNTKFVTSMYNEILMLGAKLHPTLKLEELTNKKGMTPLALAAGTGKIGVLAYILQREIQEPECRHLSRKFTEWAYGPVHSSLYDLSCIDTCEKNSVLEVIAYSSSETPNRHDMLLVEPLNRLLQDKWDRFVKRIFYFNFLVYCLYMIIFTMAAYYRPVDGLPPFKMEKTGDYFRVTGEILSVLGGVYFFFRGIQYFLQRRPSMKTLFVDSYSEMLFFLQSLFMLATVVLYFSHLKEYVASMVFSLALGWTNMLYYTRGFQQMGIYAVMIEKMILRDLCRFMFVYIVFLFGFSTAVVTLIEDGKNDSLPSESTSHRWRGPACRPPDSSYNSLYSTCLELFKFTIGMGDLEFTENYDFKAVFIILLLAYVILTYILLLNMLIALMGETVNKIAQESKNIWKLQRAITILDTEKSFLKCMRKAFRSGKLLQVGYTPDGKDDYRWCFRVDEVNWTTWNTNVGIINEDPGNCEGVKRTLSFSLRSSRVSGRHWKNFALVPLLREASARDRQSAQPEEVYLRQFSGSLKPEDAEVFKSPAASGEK

For the compound `CC1CCN(c2cc(C(F)(F)F)ccc2CNC(=O)C(C)c2ccc(NS(C)(=O)=O)c(F)c2)CC1` (stereo not given), in data set [1] (read-out: Ki), the Ki stood at 0.9 nM.
Take `CC(C(=O)NCc1ccc(C(F)(F)F)cc1SC1CCCCC1)c1ccc(NS(C)(=O)=O)c(F)c1` (stereo not given): in [1] (read-out: Ki), the Ki was found to be 0.5 nM.
As to `CCCCN(C)c1cc(C(F)(F)F)ccc1CNC(=O)C(C)c1ccc(NS(C)(=O)=O)c(F)c1` (stereo not given), the Ki in data set [1] (read-out: Ki) was found to be 1.2 nM.
On to `CC(C(=O)NCc1ccc(C(F)(F)F)nc1-c1ccc(F)c(Cl)c1)c1ccc(NS(C)(=O)=O)c(F)c1` (stereo not given), for which the Ki in data set [1] (read-out: Ki) amounted to 0.6 nM.
Regarding `CC(C(=O)NCc1ccc(C(F)(F)F)cc1-c1cccc(Cl)c1)c1ccc(NS(C)(=O)=O)c(F)c1` (stereo not given), in data set [1] (read-out: Ki), the Ki amounted to 1 nM.
As to `CCCCCCc1cc(C(F)(F)F)ccc1CNC(=O)C(C)c1ccc(NS(C)(=O)=O)c(F)c1` (stereo not given), the Ki in data set [1] (read-out: Ki) was 0.4 nM.
In the case of `C[C@H](C(=O)NCc1ccc(C(F)(F)F)cc1SC1CCCCC1)c1ccc(NS(C)(=O)=O)c(F)c1`, the Ki in data set [2] was found to be 0.03 nM; in [1] (read-out: Ki) it was 0.3 nM. Also, the half-maximal inhibitory concentration (IC50) was 20.4 nM in [3] and 7.3 nM in [4]. The compound further returned an inhibition in vivo at 3 mg/kg with Mus musculus [5] of 57%. The Activity result in the data set on Mus musculus [6] is “Dose-dependent effect”; in the data set on Mus musculus [7] it was “Non-toxic”.
Consider `CCCCCSc1cc(C(F)(F)F)ccc1CNC(=O)C(C)c1ccc(NS(C)(=O)=O)c(F)c1` (stereo not given), for which the Ki in [1] (read-out: Ki) worked out at 2.3 nM.
Consider `CC(C(=O)NCc1ccc(C(F)(F)F)cc1N1CCN(c2cccc(C(F)(F)F)c2)CC1)c1ccc(NS(C)(=O)=O)c(F)c1` (stereo not given), for which the Ki in [1] (read-out: Ki) is 3.9 nM.
Turning to `COc1ccc(CSc2cc(C(F)(F)F)ccc2CNC(=O)C(C)c2ccc(NS(C)(=O)=O)c(F)c2)cc1` (stereo not given), the Ki in [1] (read-out: Ki) came to 2.3 nM.
`CCCCSc1cc(C(F)(F)F)ccc1CNC(=O)C(C)c1ccc(NS(C)(=O)=O)c(F)c1` (stereo not given): the Ki in data set [1] (read-out: Ki) was found to be 1.9 nM.
Still for that read-out and setting: with `CC(C)CCOc1cc(C(F)(F)F)ccc1CNC(=O)C(C)c1ccc(NS(C)(=O)=O)c(F)c1` (stereo not given) the figure was 0.5 nM; with `CC(C(=O)NCc1ccc(C(F)(F)F)cc1SCc1ccc(Cl)cc1)c1ccc(NS(C)(=O)=O)c(F)c1` (stereo not given), 1.1 nM; with `CC(C)COc1cc(C(F)(F)F)ccc1CNC(=O)C(C)c1ccc(NS(C)(=O)=O)c(F)c1` (stereo not given), 0.8 nM.
Still for that read-out and setting: with `CCCCCCSc1cc(C(F)(F)F)ccc1CNC(=O)C(C)c1ccc(NS(C)(=O)=O)c(F)c1` (stereo not given) the figure was 1.8 nM.
As for `CC(C(=O)NCc1ccc(C(F)(F)F)cc1N1CCC(Cc2ccc(F)cc2)CC1)c1ccc(NS(C)(=O)=O)c(F)c1` (stereo not given), the Ki in data set [1] (read-out: Ki) stood at 0.4 nM.
For `CC(C(=O)NCc1ccc(C(F)(F)F)cc1-c1ccc(F)c(Cl)c1)c1ccc(NS(C)(=O)=O)c(F)c1` (stereo not given), the Ki in [1] (read-out: Ki) is 0.6 nM.
As to `CCCOc1cc(C(F)(F)F)ccc1CNC(=O)C(C)c1ccc(NS(C)(=O)=O)c(F)c1` (stereo not given), the Ki in data set [1] (read-out: Ki) worked out at 2 nM.
The same measure, in the same setting: with `CC(C(=O)NCc1ccc(C(F)(F)F)cc1SCc1ccco1)c1ccc(NS(C)(=O)=O)c(F)c1` (stereo not given) the figure was 3.2 nM; with `CC(C(=O)NCc1ccc(C(F)(F)F)cc1N1CCC(Cc2cccc(F)c2)CC1)c1ccc(NS(C)(=O)=O)c(F)c1` (stereo not given), 0.4 nM.
Still for that read-out and setting: for `CC(C)CCSc1cc(C(F)(F)F)ccc1CNC(=O)C(C)c1ccc(NS(C)(=O)=O)c(F)c1` (stereo not given) the value was 1.4 nM; for `CC(C(=O)NCc1ccc(C(F)(F)F)cc1C1CCCCC1)c1ccc(NS(C)(=O)=O)c(F)c1` (stereo not given), 0.6 nM.
Take `CC(C(=O)NCc1ccc(C(F)(F)F)cc1SCc1ccccc1)c1ccc(NS(C)(=O)=O)c(F)c1` (stereo not given): the Ki in data set [1] (read-out: Ki) stood at 0.5 nM.
The same measure, in the same setting: for `CC(C(=O)NCc1ccc(C(F)(F)F)cc1SCc1ccccc1Cl)c1ccc(NS(C)(=O)=O)c(F)c1` (stereo not given) the value was 0.9 nM.
Take `CC(C(=O)NCc1ccc(C(F)(F)F)cc1SCCCO)c1ccc(NS(C)(=O)=O)c(F)c1` (stereo not given): in data set [1] (cho), the Ki result is given as “Not Active”.
As for `CC(C(=O)NCc1ccc(C(F)(F)F)cc1[N+](=O)[O-])c1ccc(NS(C)(=O)=O)c(F)c1` (stereo not given), the Ki entry in data set [1] (cho) is given as “Not Active”.
`CC(C(=O)NCc1ccc(C(F)(F)F)cc1SC1CCCC1)c1ccc(NS(C)(=O)=O)c(F)c1` (stereo not given): the Ki in data set [2] amounted to 0.03 nM; in [1] (read-out: Ki) it was 0.3 nM. The IC50 in data set [3] was 32 nM; in data set [4] it was 37.2 nM. The compound also had an inhibition in vivo at 0.3 mg/kg with Mus musculus [8] of 38%. In addition, 3 mg/kg produced 80% inhibition in vivo with Mus musculus [5]. Also, the MPE in the data set with Mus musculus [9] is recorded as 48%. In the data set on Mus musculus [10], the inhibition entry is “Dose-dependent effect”. The results for the Activity entry in the data set on Mus musculus [6] and in the data set with Mus musculus [7] were “Dose-dependent effect” and “Non-toxic”, respectively.
For `C[C@@H](C(=O)NCc1ccc(C(F)(F)F)cc1SC1CCCCC1)c1ccc(NS(C)(=O)=O)c(F)c1`, the Ki in [1] (read-out: Ki) stood at 13.9 nM.
Regarding `CC(C(=O)NCc1ccc(C(F)(F)F)nc1N1CCC(C(F)(F)F)CC1)c1ccc(NS(C)(=O)=O)c(F)c1` (stereo not given), in [1] (read-out: Ki), the Ki was determined as 0.4 nM.
Regarding `CC(C(=O)NCc1ccc(C(F)(F)F)cc1OCc1ccc(F)cc1)c1ccc(NS(C)(=O)=O)c(F)c1` (stereo not given), the Ki in [1] (read-out: Ki) came out at 0.5 nM.
